Test results: ChEMBL document CHEMBL3044532, “Integrated control of cotton root rot disease by mixing fungal biocontrol agents and resistance inducers” (2009)

How the values were obtained:
Assay type in all cases: functional
Gossypium barbadense [1] = assay: Induction of systemic acquired resistance against Fusarium oxysporum AUSB 26325 in Gossypium barbadense seeds assessed as increase of dry weight of seedling under greenhouse condition at 0.05 ml/L after 7 days
Gossypium barbadense [2] = assay: Induction of systemic acquired resistance against Pythium debaryanum AUSB 26351 in Gossypium barbadense seeds assessed as increase of germination under greenhouse condition at 0.05 ml/L after 7 days relative to control
Gossypium barbadense [3] = assay: Induction of systemic acquired resistance against Pythium debaryanum AUSB 26351 in Gossypium barbadense seeds assessed as reduction of disease index for germination under greenhouse condition at 0.05 ml/L after 7 days relative to infected control; design: scale not given: the % may be the effect or the level left
Gossypium barbadense [4] = assay: Induction of systemic acquired resistance against Fusarium oxysporum AUSB 26325 in Gossypium barbadense seeds assessed as increase of germination under greenhouse condition at 0.05 ml/L after 7 days relative to control
Gossypium barbadense [5] = assay: Induction of systemic acquired resistance against Pythium debaryanum AUSB 26351 in Gossypium barbadense seeds assessed as increase of dry weight of seedling under greenhouse condition at 0.05 ml/L after 7 days
Gossypium barbadense [6] = assay: Induction of systemic acquired resistance against Fusarium oxysporum AUSB 26325 in Gossypium barbadense seeds assessed as increase of fresh weight of seedling under greenhouse condition at 0.05 ml/L after 7 days
Gossypium barbadense [7] = assay: Induction of systemic acquired resistance against Fusarium oxysporum AUSB 26325 in Gossypium barbadense seeds assessed as reduction of disease index for germination under greenhouse condition at 0.05 ml/L after 7 days relative to infected control; design: scale not given: the % may be the effect or the level left
Gossypium barbadense [8] = assay: Induction of systemic acquired resistance against Pythium debaryanum AUSB 26351 in Gossypium barbadense seeds assessed as increase of fresh weight of seedling under greenhouse condition at 0.05 ml/L after 7 days

Structure (SMILES): CSC(=O)c1cccc2nnsc12 [ACIBENZOLAR-S-METHYL]
- Activity (Gossypium barbadense [1]): 0.9 g
- Activity (Gossypium barbadense [2]): 40%
- Activity (Gossypium barbadense [3]): 60%
- Activity (Gossypium barbadense [4]): 40.7%
- Activity (Gossypium barbadense [5]): 0.2 g
- Activity (Gossypium barbadense [6]): 8.3 g
- Activity (Gossypium barbadense [7]): 45.3%
- Activity (Gossypium barbadense [8]): 2 g
